Source: patent US12502369B2, “Methods of cancer treatment” (K-GEN, INC., priority 2015, dated 2025)
“Also recorded” adds a separate entry of the source.

Experiments:
[1] = test system: PKC substrates in A549 cells; test: Global PKC activation (phosphorylated PKC substrates), Western blot, A549; type: cell-based; conditions: 30 minutes, Phospho-PKC substrate Motif MultiMab
Description: (§1) A549 lung cancer cells (˜3 million cells) were seeded in 10 cm tissue culture dishes and grown overnight. Cells were then treated with different drugs at indicated concentrations (see FIG. 9A for global activation of PKC and FIG. 10 for activation of PKC isoforms) for 30 minutes. Panc2.13 pancreatic cells (˜5 million) were seeded and treated as in FIG. 9B for global activation of PKC. Cell lysate preparation, protein quantitation, SDS-PAGE, and Western blotting procedures are described in Example 2. Primary antibodies used in this Example and later Examples of this application are shown in Table A. Western blot membranes were scanned using Odyssey® Imaging System (Licor Biosciences) if secondary antibodies Anti-mouse IgG Dylight 800 conjugate or Anti-rabbit IgG DyLight 680 conjugate (1:10000)(Cell signaling or similar IR 2nd antibodies from different vendors) were used. Alternatively, Imagequant LAS4000 (GE) was used to scan membranes if secondary antibodies Anti-mouse IgG HRP conjugate or Anti-rabbit IgG HRP conjugate (dilutions from 1:2000-1:10000) were used.

A549 cells = test: Soft agar colony formation assay; type: cell-based
Description: To prepare the base agar layer (0.6%), melted 1.2% agar solution was mixed 1:1 (v/v) with 2×DMEM/20% FBS medium in a tube by inverting several times and 50 μL of the mixture was immediately transferred to a well in a 96-well flat-bottom microplate. The plate was placed at 4° C. for 30 minutes to allow the base agar layer to solidify. Then, the cell agar layer (agar 0.4%) was prepared by transferring 75 μL of the cell and agar mixture containing 1:1:1 (v/v/v) of 1.2% agar solution, 2×DMEM/20% FBS and cell suspension (0.4-4×10^5/mL) to each well of the plates so that each well contained 1000-10000 cells per well. The plates were placed at 4° C. for 15 minutes and then 75 μL of media were added to each well. After incubating the plates overnight in a CO2 incubator, 50 μL of media with or without 5× final concentrations of compounds were added to each well. Each compound was tested in 9-point 3-fold dilution series. The plates were incubated for 7-10 days at 37° C. At the end of incubation period, 28 μL of Calcein AM solution (5 μM) was added to the center of each well. The plates were incubated at 37° C. for 45 minutes before scanning on Acumen (TTP Labtech). Each compound was tested in triplicates. Data was analyzed and compound EC50s were calculated using GraphPad Prism 5.

PKCμ = PKCμ phosphorylation in A549, HCT116, SW620, Panc02.13 cells, Western blot; type: cell-based; conditions: 30 minutes
Description: (§2) Non-cancerous lung fibroblast cell line HFL-1 or cancer cells (2-8 million cells) were seeded in 10 cm dishes and grown overnight so that the cells were about 40-80% confluent before treatment with the compound. Cells were then treated with different drugs at indicated concentrations (see descriptions for FIG. 11 and FIG. 12) for 30 minutes. Cell lysate preparation, protein quantitation, SDS-PAGE, and Western blotting procedures are described in Example 2 and 4. Primary antibodies used in this Example and later Examples of this application are shown in Table A. Secondary antibodies Anti-mouse IgG HRP conjugate or Anti-rabbit IgG HRP conjugate (dilutions from 1:2000-1:10000) were used. Western blot membranes were scanned using Imagequant LAS4000 (GE).

[2] = literature reports; cited from earlier work
PKCδ = PKCδ Tyr311 phosphorylation in A549, HCT116, SW620, Panc02.13 cells, Western blot; type: cell-based; conditions: 30 minutes
Description: as §2, with “(GE). The results are shown in FIG. 11A and FIG. 11B for HFL-1 cells and FIG. 11C and FIG. 12 for A549 cells.” for “(GE).”

[3] = test system: PKC isoforms in Panc2.13 cells; test: Time course of activation of PKC isoforms in Panc2.13; type: cell-based; conditions: extended periods (16 h and 24 h), K102 0.1 μM, K103 0.01 μM versus K101A
Description: Cells of pancreatic cancer cell line Panc2.13 were seeded as described above, and the cell confluence was between 40-80% the next day. […] Phosphorylation at multiple PKC isoforms, such as Ser744/748 or Ser916 for PKCμ, phosphorylation at Thr638/641 for PKCα/β, phosphorylation at Ser660 for PKCβII (pan-PKC), phosphorylation at Ser643/676 for PKCδ/θ, and phosphorylation at Thr505 for PKCδ, were detected.

[4] = test system: PKC substrates in Panc2.13 cells; test: Global PKC activation (phosphorylated PKC substrates), Western blot, Panc2.13; type: cell-based; conditions: Phospho-(Ser) PKC Substrate Antibody
Description: as §1

[5] = test system: PKC isoforms in A549 cells; test: Activation of PKC isoforms, Western blot, A549; type: cell-based; conditions: 30 minutes
Description: as §1

[6] = test system: K-Ras mutant pancreatic, lung, and colon cancer cell lines, leukemia cell lines; test: Proliferation assays, panel of cancer cell lines (summary statements); type: cell-based
Description: Briefly, cells at a density of 1,000-10,000 cells/well were seeded in 96-well plates and incubated at 37′C for 24 hours. A series of 9 different concentrations of compound stocks (500×) were created by 3-fold serial dilution in DMSO. These compounds were further diluted in culture media and then added to cells so that the final DMSO concentration was 0.2%. After 96 hours of incubation, 50 μL of CellTiter Glo reagent (Promega) was added to each well and luminescence was measured after 10 minutes using EnVision (PerkinElmer). […] The dose range for most compounds was 4.6 nM-30 μM. The dose ranges for some compounds were adjusted downward to 0.46 nM-3 μM or 0.08 nM-0.5 μM or 0.03 nM-0.2 μM. Luminescence from cells treated with […] alone was set as Max and % of inhibition was calculated as follows: Inhibition %=(Max-Sample value)/Max*100. Data was analyzed using XL-fit software (ID Business Solutions Ltd.) and EC50, relative EC50, and % of top inhibition were calculated. The results are shown in Tables 3-6 for pancreatic cancer, lung cancer, colon/gastric cancer, and leukemia cell lines.

MiaPaCa-2 = test: Proliferation assay, PKC inhibitor in combination with PKC activators, MiaPaCa-2; type: cell-based; conditions: Go6983 0.1 μM or 1 μM with K101A or K102
[7] = test system: PKC isoforms and Erk1/2 in Mino and Namalwa cells; test: PKC inhibitor effect on K101A-mediated phosphorylation of PKCs and Erk1/2 in Mino and Namalwa cells; type: cell-based
Description: Cell lysis, protein quantitation, and Western blot analysis were performed as described above in Example 2 and 4. […] Again, these PKC inhibitor studies indicate the anti-proliferative effects of the PKC activators appear to be positively associated with phosphorylation and activation of novel PKC isoforms and PKCγ, and negatively associated with the phosphorylation of PKCδ at Tyr311.

Namalwa cells = test: Proliferation assay, PKC inhibitors in combination with PKC activators, Namalwa; type: cell-based; conditions: Sotrastaurin 0.3/1 μM, Go6983 0.1/1 μM, Go6976 0.3/1 μM, Enzastaurin at very high concentration of 10 μM
Description: PKC inhibitor studies were performed as described in Example 15. […] Thus, PKC activator-mediated anti-proliferation effects may be dependent on activation of novel PKC isoforms.

A549 = test: Proliferation assay, PKC inhibitor in combination with PKC activators, A549; type: cell-based; conditions: Go6983 0.1 μM or 1 μM with K101A or K102
Description: To assess if activation of different classes of PKC is required for anti-proliferation effect of PKC activators, Sotrastaurin, a PKC inhibitor targeting both conventional and novel classes of PKC, was tested in combination with PKC activators in the proliferation assays. Proliferation assay in lung cancer cell line A549 (FIG. 15) and in pancreatic cell line MiaPaCa-2 (FIG. 16) was performed as described in Example 1. […] Then, K101A or K102 was tested in 8- or 9-point titrations in the presence of DMSO or Sotrastaurin (0.1 μM or 1 μM). […] Thus, PKC activator-mediated anti-proliferation effects are dependent on activation of PKC isoforms from conventional, or novel, or both classes of PKCs.
To assess if PKC activation is required for anti-proliferation effect of PKC activators in cancer cell lines that are sensitive to these activators, a pan-PKC inhibitor Go6983, targeting classes of PKCs (conventional, novel, atypical, and PKCμ), was tested in combination with PKC activators in the proliferation assays. Proliferation assay in lung cancer cell line A549 (FIG. 17) and in pancreatic cell line MiaPaCa-2 (FIG. 18) was performed as described in Example 1. […] Then, K101A or K102 was tested in 8- or 9-point titrations in the presence of DMSO or Go6983 (0.1 μM or 1 μM). […] Thus, PKC activation is required for anti-proliferation effect of PKC activators.
Proliferation assay was performed as described in Example 1. […] Thus, PKC activator-mediated anti-proliferation effects appear mainly dependent on activation of novel PKC isoforms.

Mino cells = test: Proliferation assay, PKC inhibitors in combination with PKC activators, Mino; type: cell-based; conditions: Sotrastaurin 0.3/1 μM, Go6983 0.1/1 μM, Go6976 0.3/1 μM, Enzastaurin 1/3 μM
Description: PKC inhibitor studies were performed as described in Example 8, 9, and 10. […] Thus, PKC activator-mediated anti-proliferation effects may be dependent on activation of PKC isoforms from the novel PKC class.

[8] = test system: PKC isoforms and Erk1/2 in A549 cells; test: PKC inhibitor effect on PKC activator-mediated phosphorylation of PKCs and Erk1/2, A549; type: cell-based; conditions: 30 minutes
Description: To assay if PKC inhibitors have any effects on the PKC activator-mediated phosphorylation of PKCs, A549 cells were pre-treated with DMSO, PKC inhibitors Go6983 (0.3 μM or 1 μM) or Sotrastaurin (0.3 μM or 1 μM) for 30 minutes before adding PKC activators K101A (1 μM) or K102 (0.1 μM) for another 30 minutes (FIG. 22). Cell lysis, protein quantitation, and Western blot analysis were performed as described above in Example 2 and 4. […] Phosphorylation of PKCα/β at Thr638/641 was not affected by the inhibitors (FIG. 22A). […] These PKC inhibitor studies indicate that blocking phosphorylation and activation of various isoforms of PKC is correlated with inhibition of the anti-proliferative effects of the PKC activators.
Cell lysis, protein quantitation, and Western blot analysis were performed as described above in Example 2 and 4. […] These PKC inhibitor studies also indicate that phosphorylation and activation of novel PKC isoforms and PKCμ is required for the anti-proliferative effects of the PKC activators whereas phosphorylation of PKCδ at Tyr311 is correlated with inhibition of the anti-proliferative effects of PKC activators.

[9] = inhibitor pre-treatment 0.3 μM or 1 μM

CCCCCCCCCCCCCC(=O)O[C@@H]1[C@@H](C)[C@@]2(O)[C@@H](C=C(CO)C[C@]3(O)C(=O)C(C)=C[C@@H]23)[C@@H]2C(C)(C)[C@]12OC(C)=O [Compound K-103, 12-O-Tetradecanoylphorbol-13-acetate]
phosphorylation of PKC substrates (global activation of PKC) [1]: potently elevated
number of colonies formed in soft agar (A549 cells; 7-10 days, 9-point dilution series): reduced the number of colonies
potency rank in soft agar assay (A549 cells; K103, followed by K102, K101A, and K101E): Most potent compound
PKCμ activation, phosphorylation at Ser744/748 (PKCμ): observed for all four cancer cell lines
PKCμ activation, phosphorylation at Ser916 (PKCμ): observed primarily in cell lines A549 and Pan 02,13; also recorded: observed primarily in cell lines A549 and Panc02.13
tumor promotion [2]: tumor-promoting
PKCδ activation, phosphorylation at Tyr311 (PKCδ): observed for PKC activator insensitive cell lines HCT116 and SW620 but not as significantly for sensitive cell lines A549 and Pan 02,13; also recorded: observed for cell lines HCT116 and SW620 but not as significantly for cell lines A549 and Panc02.13
reducing the phosphorylation at βII Ser660 of PKC (pan), to a lesser extent Thr638/641 of PKCα/β [3]: more potent
phosphorylation of PKC substrates (global activation of PKC) [4]: potently elevated
P-PKCδ (Thr505) and P-PKCδ/θ (Ser643/676) [5]: potently increased
P-PKC (pan)(βII Ser660) and P-PKCα/β (Thr638/641) ([5]; high levels already in DMSO treated cells): no further increases
potency in proliferation inhibition relative to prostratin [6]: more potent in proliferation inhibition

COc1ccc2c(c1)c(C1=C(c3c[nH]c4ccccc34)C(=O)NC1=O)cn2CCCN(C)C [Go6983]
effect on PKC activator-mediated anti-proliferation effects (MiaPaCa-2): inhibited the PKC activator-mediated anti-proliferation effects in a dose-dependent manner
phosphorylation of PKCδ at Tyr311 induced by PKC inhibitor ([7]; inhibitor pre-treatment 30 minutes): induced robust phosphorylation
K101A-induced phosphorylation of PKCμ at Ser916 or Ser744/748, PKCδ at Thr505, and Erk ([7]; inhibitor pre-treatment 30 minutes (Go6983, Sotrastaurin 1 μM)): completely abolished
effect on PKC activator-mediated anti-proliferation effects (Namalwa cells): dose-dependently blocked
effect on PKC activator-mediated anti-proliferation effects (A549): inhibited the PKC activator-mediated anti-proliferation effects in a dose-dependent manner
effect on PKC activator-mediated anti-proliferation effects (Mino cells): dose-dependently blocked
K101A- and K102-induced phosphorylation of Erk1/2 [8, 9]: blocked dose-dependently
K101A- or K102-induced phosphorylation, P-PKCμ (Ser916), P-PKCμ (Ser744/748), P-PKCδ (Thr505) [8, 9]: blocked in a dose-dependent manner
Phosphorylation of PKCα/β at Thr638/641 [8, 9]: not affected
K101A- or K102-induced phosphorylation of PKCμ at Ser916 or Ser744/748, PKCδ at Thr505, and Erk ([8]; inhibitor pre-treatment 1 μM): completely abolished
phosphorylation of PKCδ at Tyr311 induced by PKC inhibitor ([8]; inhibitor pre-treatment 1 μM): induced phosphorylation of PKCδ at Tyr311
